Assay results: article PMC7718273 (Scientific Reports, 2020)
Read-outs that look alike come from different tables or passages of the source.

How the values were obtained:
[1] = Pharmacokinetic study in monkeys; format: in vivo; details: male, cynomolgus, cynomolgus monkey, plasma, inhaled or intranasal; for AUC(0-t): read-out: AUC(0–6 h)
Method: Six male cynomolgus monkeys (4.5–5.5 kg) were obtained from Sichuan Primed Shines Bio-tech Co., Ltd (Chengdu, Sichuan, China) and maintained at 18–26 °C, a relative humidity of 40%-70%, a minimum of 8 air changes/h, and a 12-h light/12-h dark cycle. […] Plasma sample preparations and analysis were the same as described in mice study.

[2] = Microsomal stability, human; format: in vitro ADME; details: liver microsomes, pH 7.4, 0.5 mg/mL, NADPH, read-out: Microsomal stability (% remaining at 60 min)
Method: (§1) Aliquots were then transferred in duplicate to: (i) a final concentration plate that was immediately quenched with 23.6 ng/mL internal standard (IS, chlorpropamide) in acetonitrile (ACN) or (ii) tubes, which were centrifuged for 5 min at 4℃ (14,000 rpm). The samples were subjected to LC–MS/MS analysis on an AB Sciex 4000 Q Trap hybrid triple quadrupole linear ion-trap MS (AB Sciex, Framingham, MA) coupled to an Agilent 1200 HPLC (Agilent Tech. Santa Clara, CA) with a reverse-phase Kinetex XB-C18 column (2.1 × 100 mm, 2.6 µm; Phenomenex). Mobile phases were comprised of 0.1% formic acid (FA) in water (A) and 0.1 FA in ACN (B). Data analysis was performed using […] (Ver. 1.6.1).

[3] = tested on: CDAHFD NASH mouse model; assay: In vivo study using CDAHFD mice (NASH model); design: species or system C57BL/6J mice
Method: C57BL/6J mice were fed normal chow diet (n = 5) or choline-deficient, L-amino acid-defined, high-fat diet (CDAHFD) for 4 weeks to induce NASH (n = 8–10/group). […] (a) Relative FAP activity was assessed by FRET-quench and serum FGF21 level at week 14. […] (c) Steatosis scores ranged from 0 to 3 (normal = 0, minimal = 1, moderate = 2, marked = 3) were determined. Hepatic steatosis and fibrosis (Picrosirius red stain) were analyzed in a blinded manner or by digital image analyzer. (d–e) Histological evaluations of liver tissue were performed in each group. Paraffin-embedded liver sections were stained with H&E (d) and Sirius red (e). Representative photographs of each group were presented. Images were obtained at 100x (Scale bar = 50 µm).
Male C57BL/6J mice (5 weeks of age) were fed with a CDAHFD consisting of 60% kcal fat and 0.1% methionine. […] For the CDAHFD model, compound treatments were started at the beginning of week 4 on the diet and continued until week 14. […] Liver tissue was then collected. All other measurements were done similarly as described above. Staining was performed using H&E and Picrosirius red as described previously. Areas of positive Sirius red were quantified by computer-based morphometric analysis.

[4] = biological target: T1, PREP (Homo sapiens, UniProt P48147); assay: PREP activity, fluorometric assay with AMC substrate; format: biochemical
T1 construct: purchased R&D Systems 4308-SE
Method: Recombinant human PREP (hPREP) (catalog no. 4308-SE), hDPP2/7 (catalog no. 3438-SE), hDPP9 (catalog no. 5419-SE), hFAP (catalog no. 3715-SE), and hDPP4 (catalog no. 9168-SE) proteins were from R&D Systems (Minneapolis, MN). Human FGF21 (catalog no. CRF159C) was from Cell Science (Newburyport, MA).
FAP enzyme activities were assayed in 20 mM Tris/HCl, 0.1 M NaCl, 1 mM EDTA (pH 8.0) in the presence of 40 μM Suc-Gly-Pro-Leu-Gly-Pro-AMC (#I-1350.0100, BACHEM, Bubendorf, Switzerland) and hFAP in a total volume of 100 µL. […] The inhibitor concentrations ranged from 100 μM to 0.03 nM, and its IC50 values were computed with commercially available curve-fitting programs such as the SigmaPlot. Other protease activities were determined in a similar manner.

[5] = tested on: differentiated 3T3/L1 adipocytes; assay: hFGF21 signalling in differentiated 3T3/L1 adipocytes with added FAP (immunoblot); format: cell-based; details: 5 µM; hFGF21 500 ng/mL pre-incubated with FAP 100 ng/mL for 2 h
Method: Treatment with hFGF21 increased p-ERK, Glut1 and adiponectin levels, which were reduced in the presence of FAP.
(a) Fully differentiated 3T3/L1 adipocytes were incubated with full-length hFGF21 at 500 ng/mL. […] Phosphorylated ERK (p-ERK), total ERK (ERK), Glut1, adiponectin and β-actin were measured by immunoblots. (b) Quantification of p-ERK, Glut1 and adiponectin was obtained with densitometric analysis, and normalized with total ERK or β-actin, respectively.
Western blots were performed as described. For protein preparation, cells or tissues were solubilized in a lysis buffer. Protein concentration was determined using a Bio-Rad Protein Assay kit (Bio-Rad, Richmond, CA). Then, 20 μg of the protein was electrophoresed by SDS-PAGE and electrotransferred to polyvinylidene fluoride membranes (Millipore, Bedford, MA). […] Antibodies were detected by horseradish peroxidase-linked secondary antibody (1:10,000; Cell Signaling Tech., 7074S), using the enhanced chemiluminescence Western Blotting Detection System (Molecular Imager Gel Doc XR System, BIO-RAD). […]

[6] = Microsomal stability, monkey; format: in vitro ADME; details: liver microsomes, pH 7.4, monkey (Mk), 0.5 mg/mL, NADPH, read-out: Microsomal stability (% remaining at 60 min)
Method: as §1

[7] = 10 and 30 mg/kg, week 14, vs vehicle

T1 sequence (P48147 whole entry): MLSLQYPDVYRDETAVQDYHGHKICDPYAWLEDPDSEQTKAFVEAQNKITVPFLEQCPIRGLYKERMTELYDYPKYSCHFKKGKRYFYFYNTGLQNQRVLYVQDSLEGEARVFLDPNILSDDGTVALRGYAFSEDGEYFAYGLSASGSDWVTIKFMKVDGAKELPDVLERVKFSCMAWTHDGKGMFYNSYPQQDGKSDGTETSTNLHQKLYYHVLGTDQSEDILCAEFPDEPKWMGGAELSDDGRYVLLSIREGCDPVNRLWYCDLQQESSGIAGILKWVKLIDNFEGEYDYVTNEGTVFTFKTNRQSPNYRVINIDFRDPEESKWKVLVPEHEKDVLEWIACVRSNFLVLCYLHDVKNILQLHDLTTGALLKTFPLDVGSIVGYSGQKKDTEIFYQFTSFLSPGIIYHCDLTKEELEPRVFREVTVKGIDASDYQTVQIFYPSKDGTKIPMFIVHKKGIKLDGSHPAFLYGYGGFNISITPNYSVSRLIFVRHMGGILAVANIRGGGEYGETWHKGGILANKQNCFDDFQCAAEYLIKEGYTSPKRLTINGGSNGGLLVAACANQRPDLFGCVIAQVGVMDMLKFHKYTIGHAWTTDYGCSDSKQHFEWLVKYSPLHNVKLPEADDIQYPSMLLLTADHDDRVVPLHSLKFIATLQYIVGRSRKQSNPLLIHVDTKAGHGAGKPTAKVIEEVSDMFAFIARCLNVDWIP

## N#Cc1ccc(Cc2nc(C(=O)NCC(=O)N3CC(F)(F)C[C@H]3C#N)cs2)cc1 [BR103354, (S)-N-(2-(2-cyano-4,4-difluoropyrrolidin-1-yl)-2-oxoethyl)-2-(4-cyanobenzyl)thiazole-4-carboxamide]
[1]; monkey, 10 mg/kg intranasally
  Cmax: 420 ng/mL
  Tmax: 2.3 h
  AUC(0-t): 1200 ng·h/mL
[1]; monkey, 10 mg/kg intranasally, read-out: T1/2 (converted)
  half-life: 1.3 h
[1]; monkey, 30 mg/kg intranasally
  Cmax: 2000 ng/mL
  Tmax: 2.3 h
  AUC(0-t): 6400 ng·h/mL
[1]; monkey, 30 mg/kg intranasally, read-out: T1/2 (converted)
  half-life: 2.8 h
[1]; monkeys, 10/30 mg/kg, read-out: half-life (T1/2), range over doses
  half-life: 1.3 to 2.8 h
[1]; monkeys, dose not given in the sentence (10/30 mg/kg)
  Tmax: 2.3 h
[2]
  remaining at 1 h, 1 µM: 95%
[3]; 10 and 30 mg/kg
  liver fibrosis (Picrosirius red staining): significant reduction
[3]; 10 and 30 mg/kg p.o. for 10 weeks
  increase of serum FGF21 levels: 1.5–1.9 folds
[3]; 10 and 30 mg/kg, score 0 to 3
  Steatosis scores: significant reduction
[3]; [7]
  TG: reduced
  blood ALT levels: reduced
  blood AST levels: reduced
  glucose levels: reduced
  total cholesterol: reduced
[4]
  IC50: 387 nM
[5]
  Glut1 levels: enhanced Glut1 levels
  p-ERK levels: restored p-ERK levels to those of normal
[6]
  remaining at 1 h, 1 µM: 81%
